Data published in US11266755B2, “Development and application of tumor diagnostic radioactive probe targeting folic acid receptor” (Kyungpook National University Industry-Academic Cooperation …, priority 2017, dated 2022).

Tested on: MDA-MB-231/Luc+
Assay: PET imaging in breast cancer bone metastasis model
Type: in vivo
Conditions: PET 1 hour after injection into the tail vein, same mouse, FIG. 13B
Method: For the breast cancer metastasis model, MDA-MB-231/Luc+ was used, and after 10 days of direct injection of 1×10^5 cells into the left ventricle, IVIS-assisted luminescence images confirmed that bone metastasis occurred to the femoral bones. After verifying the establishment of bone metastasis model of breast cancer, further experiments were carried out (FIG. 12A).

OC[C@H]1O[C@@H](O)[C@H]([18F])[C@@H](O)[C@@H]1O [FDG]
PET detection of breast cancer bone metastasis: difficult to identify the tumor site clearly due to high background uptake
